Several values for one entry are separate records, joined by “and”; a condition that tells them apart may be missing. Identical values can stand only once.
System: amyloid precursor protein (APP) proteolysis
Assay: Repressor Release Assay (RRA)
Type: cell-based
Settings: luciferase activity over diluent control; for fold induction at 10 µg/mL / fold induction at 20 µg/mL / fold induction at 1 µg/mL / fold induction at 3 µg/mL: read-out: APPI Fold Increase
Description: The beta amyloid inhibitory activity of many of the compounds of the present invention has been determined using the Repressor Release Assay (RRA). See, Table 23 below. A compound is considered active in RRA if it leads to at least a 1.5 fold increase in luciferase activity at 20 μM and is non-toxic.
The compounds generated as described in Examples 1 through 220 were tested in the RRA in accordance with published techniques [Shuey, D. J., Sheiffele, P., Jones, D., Cockett, M. I., and Quinet, E. M. (1999), “Repressor release: a useful tool for monitoring amyloid precursor protein (APP) proteolysis in mammalian cells”, Society for Neuroscience Abstracts, Vol. 25, 29th Annual Meeting of Society for Neuroscience, Miami Beach, Fla., Oct. 23-28, 1999]. Briefly, this assay is performed as follows.
CHO-K1 cells are cultured in whole DMEM media (DMEM—High Glucose with 10% fetal bovine serum, 1% Non-essential Amino Acids, and 1% Penicillin-Streptomycin) at 37° C. with 5% CO2. Two million cells are plated into 10-cm dishes 24 hrs prior to transfection.
Transient transfections are completed as recommended by Gibco BRL using their Lipofectamine Plus system. First, 6 μg of pRSVO-luc and 6 μg of APP-lacI construct DNA are added to 460 μL Opti-Mem transfection media and incubated with 30 μL Plus reagent for 15 minutes. Then, a lipid mixture of 40 μL Lipofectamine reagent and 460 μL Opti-Mem transfection media is incubated with the DNA-Plus reagent mixture for 15 minutes. During the DNA-lipid incubation, the CHO-K1 cells are washed once and covered in 5.0 mL DMEM media without Penicillin-Streptomycin. The DNA-lipid preparation is then layered onto these cells and incubated at 37° C. overnight.
One and one half million transfected cells per well (100 μL total volume) are plated into sterile, opaque Packard 96-well Cultur-Plates in clear DMEM whole media (DMEM—without phenol red) and incubated at 37° C. with 5% CO2 for 3-5 hours.
Compounds are diluted using two different protocols; one protocol is used for compounds supplied neat (weighed powder in vial) and the other protocol is used for compounds supplied in solution (20 mM in DMSO in 96-well plates). For both protocols, 25 mM Hepes and 25 mM Hepes/1% DMSO are prepared fresh to be used as diluent. The Hepes/DMSO is used as the diluent control on all experimental plates.
The following table depicts the steps for compound dilution (please note that the last step is the addition of compound to cells/media in tissue culture plate):
Because some compounds arrive in 96-well format at 20 mM, the following represents the protocol for their dilution (note that an average molecular weight of these compounds was used to calculate these dilutions and as above, the last step is the addition of compound to cells/media in tissue culture plate):
Once compounds are diluted, they are applied in duplicate on cells in tissue culture plates (prepared above). Cells are incubated with compound at 37° C. with 5% CO2 for an additional 36-48 hours.
Luciferase assays (LucLite reagent, Packard) are performed and are read on a Packard TopCount instrument. Media is removed from each 96-well plate and replaced with 100 μL PBS per well (with Mg^2+ and Ca^2+). An equal volume (100 μL) of the LucLite lysis/substrate buffer is added to each well and the plates are sealed and mixed in the dark on a rotary shaker for 15-30 minutes at room temperature. Luciferase readings are then taken on the TopCount instrument. Measurements are expressed as relative light units (RLU) and are calculated and analyzed in MS Excel as follows.
A compound is considered active in RRA if it leads to at least a 1.5 fold increase in luciferase activity at 20 μM and is non-toxic, as determined by loss of signal (≦0.75 fold increase). Fold increase is the amount of luciferase activity (measured in relative light units) over diluent control. SEM represents the standard error of the mean for fold increase (not shown).

## 5-bromo-N-{(S,R)-2-hydroxy-1-[(S)-1-methylpropyl]pent-4-enyl}thiophene-2-sulfonamide [Example 195]
Conc 20 μg/mL
  APPI Fold Increase: 4.2 fold and 6.7 fold

## 5-bromo-N-{(S,S)-1-[(S)-1-hydroxyethyl]-2-methylbutyl}thiophene-2-sulfonamide [Example 190]
Conc 20 μg/mL
  APPI Fold Increase: 4.4 fold and 2.6 fold

## 5-bromo-N-{(S,S)-1-[R-1-hydroxyethyl]-2-methylbutyl}thiophene-2-sulfonamide [Example 191]
Conc 20 μg/mL
  APPI Fold Increase: 5.4 fold and 4.8 fold

## 5-bromo-N-{(S,S)-2-hydroxy-1-[(S)-1-methylpropyl]pent-4-enyl}thiophene-2-sulfonamide [Example 194]
Conc 20 μg/mL
  APPI Fold Increase: 9 fold and 5.3 fold

## 5-chloro-N-{(S,R)-2-hydroxy-1-[(S)-1-methylpropyl]pent-4-enyl}thiophene-2-sulfonamide [Example 189]
Conc 20 μg/mL
  APPI Fold Increase: 8.1 fold and 7.9 fold and 7.2 fold and 4.4 fold

## 5-chloro-N-{(S,S)-1-[(S)-1-hydroxyethyl]-2-methylbutyl}thiophene-2-sulfonamide [Example 184]
Conc 20 μg/mL
  APPI Fold Increase: 3.7 fold and 2.7 fold

## 5-chloro-N-{(S,S)-2-hydroxy-1-[(S)-1-methylpropyl]pent-4-enyl}thiophene-2-sulfonamide [Example 188]
Conc 20 μg/mL
  APPI Fold Increase: 6.3 fold and 3.6 fold

## CC(c1ccccc1)C(CO)NS(=O)(=O)c1ccc(Cl)s1 (mixture of isomers) [Example 14]
Conc 3 μg/mL
  APPI Fold Increase: 1.87 fold and 3.33 fold
Conc 10 μg/mL
  APPI Fold Increase: 3.45 fold

## CCCCCCC(O)C(NS(=O)(=O)c1ccc(Cl)s1)C(C)CC (mixture of isomers) [Example 121]
Conc 10 μg/mL
  APPI Fold Increase: 1.74 fold and 1.5 fold and 1.56 fold

## CCCCCC(O)C(NS(=O)(=O)c1ccc(Cl)s1)C(C)CC (mixture of isomers) [Example 122]
Conc 10 μg/mL
  APPI Fold Increase: 1.68 fold and 1.8 fold

## CCCCC(O)C(NS(=O)(=O)c1ccc(Cl)s1)C(C)CC (mixture of isomers) [Example 123]
Conc 10 μg/mL
  APPI Fold Increase: 2.14 fold and 1.76 fold

## CCC(C)C(NS(=O)(=O)c1ccc(Cl)s1)C(O)CC(C)C (mixture of isomers) [Example 126]
Conc 10 μg/mL
  APPI Fold Increase: 5.25 fold and 3.31 fold

## C=CCC(O)C(NS(=O)(=O)c1ccc(Cl)s1)C(C)CC (mixture of isomers) [Example 128]
Conc 1 μg/mL
  APPI Fold Increase: 1.52 fold
Conc 3 μg/mL
  APPI Fold Increase: 2.48 fold
Conc 10 μg/mL
  APPI Fold Increase: 5.62 fold and 3.86 fold
Conc 20 μg/mL
  APPI Fold Increase: 5.9 fold

## CCC(C)C(NS(=O)(=O)c1ccc(Cl)s1)C(O)CC (mixture of isomers) [Example 129]
Conc 3 μg/mL
  APPI Fold Increase: 1.61 fold
Conc 10 μg/mL
  APPI Fold Increase: 7.43 fold and 4.59 fold

## C=C(C)C(O)C(NS(=O)(=O)c1ccc(Cl)s1)C(C)CC (mixture of isomers) [Example 133]
Conc 10 μg/mL
  APPI Fold Increase: 2.51 fold and 1.68 fold

## CC=C(C)C(O)C(NS(=O)(=O)c1ccc(Cl)s1)C(C)CC (mixture of isomers) [Example 135]
Conc 10 μg/mL
  APPI Fold Increase: 1.93 fold and 1.75 fold

## CCCNC1CCC(C(CO)NS(=O)(=O)c2ccc(Cl)s2)CC1 (mixture of isomers) [Example 214]
Conc 20 μg/mL
  APPI Fold Increase: 2.1 fold

## CC(c1ccccc1)C(CO)NS(=O)(=O)c1ccc(Br)s1 (racemic) [Example 15, 5-bromo-N-[1-(hydroxymethyl)-2-phenylpropyl]thiophene-2-sulfonamide]
Conc 10 μg/mL
  fold induction at 10 µg/mL: 3.08

## CCCCC(CO)NS(=O)(=O)c1ccc(Cl)s1 (racemic) [Example 91, 5-chloro-N-[1-(hydroxymethyl)pentyl]thiophene-2-sulfonamide]
Conc 20 μg/mL
  fold induction at 20 µg/mL: 2

## CCCC(CO)NS(=O)(=O)c1ccc(Cl)s1 (racemic) [Example 97, 5-chloro-N-[1-(hydroxymethyl)butyl]thiophene-2-sulfonamide]
Conc 20 μg/mL
  fold induction at 20 µg/mL: 1.8

## CCCCC(CO)NS(=O)(=O)c1ccc(Br)s1 (racemic) [Example 106, 5-bromo-N-[1-(hydroxymethyl)pentyl]thiophene-2-sulfonamide]
Conc 20 μg/mL
  fold induction at 20 µg/mL: 2.4

## CCCC(CO)NS(=O)(=O)c1ccc(Br)s1 (racemic) [Example 112, 5-bromo-N-[1-(hydroxymethyl)butyl]thiophene-2-sulfonamide]
Conc 20 μg/mL
  fold induction at 20 µg/mL: 1.6

## CC[C@H](C)[C@@H](CO)NS(=O)(=O)c1sc(Cl)cc1Br [Example 1, 3-Bromo-5-chloro-N-[(1S,2S)-1-(hydroxymethyl)-2-methylbutyl]thiophene-2-sulfonamide]
Conc 10 μg/mL
  fold induction at 10 µg/mL: 1.57

## CC[C@H](C)[C@@H](CO)NS(=O)(=O)c1ccc(Br)s1 [Example 2]
Conc 1 μg/mL
  APPI Fold Increase: 1.79 fold and 1.54 fold
Conc 3 μg/mL
  APPI Fold Increase: 2.96 fold and 2.34 fold
Conc 10 μg/mL
  APPI Fold Increase: 4.26 fold and 3.2 fold and 3.06 fold
Conc 20 μg/mL
  APPI Fold Increase: 4.5 fold and 5.5 fold and 6.3 fold

## CC[C@H](C)[C@@H](CO)NS(=O)(=O)c1cc(Br)c(Cl)s1 [Example 3]
Conc 10 μg/mL
  APPI Fold Increase: 1 fold

## CC[C@H](C)[C@@H](CO)NS(=O)(=O)c1ccc(Cl)s1 [Example 4]
Conc 1 μg/mL
  APPI Fold Increase: 2.22 fold
Conc 3 μg/mL
  APPI Fold Increase: 2.98 fold and 3.52 fold
Conc 10 μg/mL
  APPI Fold Increase: 3.3 fold and 5.03 fold
Conc 20 μg/mL
  APPI Fold Increase: 4 fold and 5.4 fold and 3.3 fold and 5.1 fold

## CC[C@H](C)[C@@H](CO)NS(=O)(=O)c1cc(Cl)sc1Cl [Example 5]
Conc 0.3 μg/mL
  APPI Fold Increase: 0.9 fold
Conc 1 μg/mL
  APPI Fold Increase: 0.9 fold
Conc 3 μg/mL
  APPI Fold Increase: 1.1 fold
Conc 10 μg/mL
  APPI Fold Increase: 1.1 fold

## CC[C@H](C)[C@@H](CO)NS(=O)(=O)c1cccs1 [Example 7, N-[(1S,2S)-1-(hydroxymethyl)-2-methylbutyl]thiophene-2-sulfonamide]
Conc 20 μg/mL
  APPI Fold Increase: 3.2 fold

## CC(C)[C@@H](CO)NS(=O)(=O)c1ccc(Cl)s1 [Example 8, 5-Chloro-N-[(1S)-1-(hydroxymethyl)-2-methylpropyl]thiophene-2-sulfonamide]
Conc 1 μg/mL
  fold induction at 1 µg/mL: 1.5
Conc 3 μg/mL
  fold induction at 3 µg/mL: 2.5
Conc 10 μg/mL
  fold induction at 10 µg/mL: 3.7
Conc 20 μg/mL
  fold induction at 20 µg/mL: 3.3

## O=S(=O)(N[C@H](CO)C1CCCCC1)c1ccc(Cl)s1 [Example 12, 5-Chloro-N-[(1S)-1-cyclohexyl-2-hydroxyethyl]thiophene-2-sulfonamide]
Conc 1 μg/mL
  fold induction at 1 µg/mL: 2.58
Conc 3 μg/mL
  fold induction at 3 µg/mL: 3.07
Conc 10 μg/mL
  fold induction at 10 µg/mL: 4.2
Conc 20 μg/mL
  fold induction at 20 µg/mL: 4.3

## O=S(=O)(NC(CO)C1CCCCC1)c1ccc(Br)s1 (stereo not shown) [Example 13]
Conc 1 μg/mL
  APPI Fold Increase: 2.17 fold
Conc 3 μg/mL
  APPI Fold Increase: 4.02 fold
Conc 10 μg/mL
  APPI Fold Increase: 3.94 fold

## CC[C@@H](C)[C@@H](CO)NS(=O)(=O)c1ccc(Cl)s1 [Example 16]
Conc 0.3 μg/mL
  APPI Fold Increase: 1.7 fold
Conc 1 μg/mL
  APPI Fold Increase: 1.9 fold and 2.56 fold
Conc 3 μg/mL
  APPI Fold Increase: 3.1 fold and 4.47 fold
Conc 10 μg/mL
  APPI Fold Increase: 4.19 fold and 3.2 fold

## CC[C@@H](C)[C@@H](CO)NS(=O)(=O)c1ccc(Br)s1 [Example 17]
Conc 1 μg/mL
  APPI Fold Increase: 2.38 fold
Conc 3 μg/mL
  APPI Fold Increase: 3.47 fold
Conc 10 μg/mL
  APPI Fold Increase: 3.29 fold
Conc 20 μg/mL
  APPI Fold Increase: 6.1 fold and 3.5 fold

## CC[C@H](C)[C@@H](CO)NS(=O)(=O)C1=CC=C(Br)S1(=O)=O [Example 18, 5-Bromo-N-[(1S,2S)-1-(hydroxymethyl)-2-methylbutyl]thiophene-2-sulfonamide 1,1-dioxide]
Conc 3 μg/mL
  fold induction at 3 µg/mL: 2.19
Conc 10 μg/mL
  fold induction at 10 µg/mL: 5.23
Conc 20 μg/mL
  fold induction at 20 µg/mL: 5.7
